Values joined by “and” are separate entries in the source; they are usually repeats but may differ in a detail not shown here. Equal entries are not always repeated.

As a reminder, the melting point is the temperature, or range, at which the solid turns liquid.

Take `CCOCCOCCO` [2-(2-Ethoxyethoxy)ethanol]: the melting point was -76 °C.

As to `NC(=S)N1CCCCC1` [piperidine-1-thiocarboxamide], the melting point was 128 °C.

As for `NS(=O)(=O)c1cc2c(cc1Cl)NCNS2(=O)=O`, the melting point amounted to 274 °C.

In turn, `O=C(/C=C/c1ccc(-c2ccc(Br)cc2)o1)c1ccccc1` [(2E)-3-[5-(4-Bromophenyl)-2-furyl]-1-phenylprop-2-en-1-one] showed a melting point of 129 °C.

`O=C(O)c1ccc([N+](=O)[O-])cc1C(=O)O` [4-nitrophthalic acid] displayed a melting point of 163 °C.

With `CC(C)=O` [acetone], the melting point was -94 °C.

For the compound `Nc1ccc(C(=O)O)cc1` [4-aminobenzoic acid], the melting point came out at 188 °C.

`O=C(O)/C=C/c1c(F)cccc1F` [2,6-difluorocinnamic acid] yielded a melting point of 125 °C.

As for `CC(C)C=O` [isobutyraldehyde], the melting point was -65 °C.

`CCOC(=O)CC(C)=O` [Ethyl 3-oxobutanoate] gave a melting point of -43 °C.

`Fc1ccc(Br)nc1` [2-bromo-5-fluoropyridine] showed a melting point of 29 °C.

For the compound `ClCc1ccccc1` [benzyl_chloride], the melting point was -43 °C.

In turn, `Cc1cn([C@H]2C[C@H](O)[C@@H](CO)O2)c(=O)[nH]c1=O` [thymidine] had a melting point of 188 °C.

In turn, `CCCCC(CC)CO` (stereo not given) [2-Ethylhexan-1-ol] came in with a melting point of -76 °C.

As to `C[Si](C)(Cl)Cl` [dichlorodimethylsilane], the melting point was -76 °C.

Consider `c1ccc2c(c1)-c1ccccc1-2` [biphenylene], for which the melting point was found to be 115 °C.

`O=C1c2c(O)cccc2Cc2cccc(O)c21` [1,8-Dihydroxyanthracen-9(10H)-one]: the melting point stood at 181 °C.

Compound `OC1c2ccccc2-c2ccccc21` [9-fluorenol] showed a melting point of 156 °C.

In turn, `Cc1cc(=O)oc2c(O)c(O)ccc12` [7,8-dihydroxy-4-methylcomarin] showed a melting point of 243 °C.

In turn, `O=C(O)CCCc1ccc2ccc3cccc4ccc1c2c34` [1-pyrenebutyric acid] returned a melting point of 185 °C.

The compound `O=C(O)Cc1cccc2ccccc12` [Naphthalen-1-Yl-Acetic Acid] returned a melting point of 135 °C.

The compound `CSCC[C@H](N)CO` [L-methioninol] had a melting point of 32 °C.

The compound `CCC(C(=O)O)c1ccccc1` (stereo not given) [2-phenylbutyric acid] gave a melting point of 38 °C.

Compound `c1c[nH]nn1` [1h-1,2,3-triazole] registered a melting point of 24 °C.

`Nc1cc(Cl)ccc1Cl` [2,5-dichloroaniline]: the melting point is 50 °C.

Consider `Oc1ccc2ccccc2c1Br` [1-bromo-2-naphthol], for which the melting point was 75 °C.

Compound `Cc1ccc(N)cc1C` [3,4-dimethylaniline] came in with a melting point of 51 °C.

As to `O=c1c(O)c(-c2ccccc2O)oc2ccccc12` [2',3-dihydroxyflavone], the melting point came out at 203 °C.

With `Fc1ccc(-c2cc3ccccc3[nH]2)cc1` [2-(4-fluorophenyl)indole], the melting point was found to be 189 °C.

`C=CC(C)(C)C` [3,3-dimethyl-1-butene]: the melting point was -115 °C.

As to `c1ccc(B(c2ccccc2)c2ccccc2)cc1` [triphenylborane], the melting point turned out to be 147 °C.

`NCC[C@H](O)C(=O)N[C@@H]1C[C@H](N)[C@@H](O[C@H]2O[C@H](CN)[C@@H](O)[C@H](O)[C@H]2O)[C@H](O)[C@H]1O[C@H]1O[C@H](CO)[C@@H](O)[C@H](N)[C@H]1O` [Amikacin] came in with a melting point of 204 °C.

For the compound `CC(C)CCC[C@@H](C)[C@H]1CC[C@H]2[C@@H]3CC=C4C[C@@H](O)CC[C@]4(C)[C@H]3CC[C@]12C` [cholesterol], the melting point was 148 °C (3×) and 149 °C.

The compound `Nc1ccc(Cl)cc1C(=O)c1ccccc1` [2-amino-5-chlorobenzophenone] came in with a melting point of 98 °C.

Compound `O=C1c3c(N(\C=C1\C(=O)O)CC)cc2OCOc2c3` [oxolinic acid] came in with a melting point of 315 °C.

As to `O=C(O)/C=C/c1ccccc1B(O)O` [2-(2-carboxyvinyl)benzeneboronic acid], the melting point came out at 171 °C.

Compound `CC=1CCCC(C)(C)C=1/C=CC(C)=CC=CC(C)=CC(=O)O` [Alitretinoin] came in with a melting point of 190 °C.

On to `CN[C@@H](C)[C@@H](O)c1ccccc1` [Pseudoephedrine], for which the melting point is 118 °C.

Take `CCCCCc1ccc(-c2ccc(C#N)cc2)cc1` [4-cyano-4'-n-pentylbiphenyl]: the melting point was determined as 23 °C.

As to `CCCCCCCCCCCCc1ccccc1` [N-dodecylbenzene], the melting point is -7 °C.

`CCOC(=O)/C=C/c1ccccc1N` [Ethyl (2E)-3-(2-aminophenyl)acrylate] yielded a melting point of 77 °C.

`CCCCCCCc1ccccc1` [N-heptylbenzene]: the melting point was -48 °C.

`COc1ccccc1-c1ccccc1` [2-methoxybiphenyl] registered a melting point of 30 °C.

`Oc1ccc(Br)cc1-c1ccno1` [4-bromo-2-(5-isoxazolyl)phenol] displayed a melting point of 211 °C.

`CC(C)c1cc(C(C)C)cc(C(C)C)c1` [1,3,5-triisopropylbenzene] had a melting point of -7 °C.

On to `CC1=C(C(=O)OCc2ccccc2)C(c2ccc3c(c2)OCO3)NC(=O)N1` (stereo not given), for which the melting point turned out to be 159 °C.

In turn, `Cc1ccnc(C)c1` [2,4-lutidine] showed a melting point of -60 °C.

For `O=C(O)c1ccccc1B(O)O` [2-carboxybenzeneboronic acid], the melting point was found to be 220 °C.

`O=C(O)c1cccnc1` [nicotinic acid] yielded a melting point of 237 °C.

The compound `O=S(=O)(O)c1ccccc1` [Benzenesulfonic acid] returned a melting point of 43.5 °C.

Take `CN(C)c1ccc(N=O)cc1` [N,N-Dimethyl-4-nitrosoaniline]: the melting point was found to be 86 °C.

Take `Cc1cc(C(=O)OCC(=N)O)c(C)n1-c1ccc(F)cc1` [OSM-S-05]: the melting point amounted to 178 °C.

`CCCOCCC` [di-n-propyl ether] returned a melting point of -122 °C.

For the compound `COc1cc(Br)cc(OC)c1OC` [5-bromo-1,2,3-trimethoxybenzene], the melting point is 79 °C.

As for `c1ccc2c(c1)oc1ccccc12` [dibenzofuran], the melting point amounted to 82 °C.

For `NC(=O)OCC(COC(N)=O)c1ccccc1` [Felbamate], the melting point amounted to 152 °C.

In turn, `O=C(O)/C=C/c1ccc(F)cc1` [4-fluorocinnamic acid] gave a melting point of 209 °C.

Consider `O=[N+]([O-])c1ccc(Cl)cc1Cl` [2,4-dichloro-1-nitrobenzene], for which the melting point stood at 31 °C.

Consider `CCCCCCCCCCC#CC#CCCCCCCCCC(=O)O` [10,12-tricosadiynoic acid], for which the melting point is 57 °C.

For the compound `Nc1ccccc1CO` [o-amino_benzyl_alcohol], the melting point turned out to be 83 °C.

The compound `O=C(O)c1cc(Cl)c(C(=O)O)cc1Cl` [2,5-dichloroterephthalic acid] displayed a melting point of 295 °C.

`CCCC(=O)O` [butanoic_acid] returned a melting point of -5 °C.

`CC1=CCC2C3CCC4CC(=O)CCC4(C)C3CCC12C` (stereo not given) [17-methylandrost-16-en-3-one] came in with a melting point of 141 °C.

As to `Cc1cc(C)c(N=C=S)c(C)c1` [2,4,6-trimethylphenyl isothiocyanate], the melting point came out at 62 °C.

Compound `CC(=O)OC1CCC2(C)C3CCC4=C(CCC4(C)C(C)OC(C)=O)C3CCC2(C)C1` (stereo not given) displayed a melting point of 118 °C.

`O=C1c2ccccc2Cc2ccccc21` [Anthracen-9(10H)-one] gave a melting point of 156 °C.

In turn, `OCC(O)COc1ccccc1` (stereo not given) [3-phenoxy-1,2-propanediol] gave a melting point of 58 °C.

Take `C1=CC=C/C=CC=C1` [1,3,5,7-cyclooctatetraene]: the melting point is -5 °C.

As to `CCCC(=O)Nc1ccc(OCC(O)CNC(C)C)c(C(C)=O)c1` (stereo not given) [acebutolol], the melting point turned out to be 119 °C.

Take `C=COC(C)=O` [Vinyl acetate]: the melting point was -100 °C.

`O=c1[nH]cc(F)c(=O)[nH]1` [fluorouracil] returned a melting point of 282 °C.

The compound `O=C(CCl)N1CCOCC1` [4-(chloroacetyl)morpholine] came in with a melting point of 29 °C.

The compound `Nc1ccc([N+](=O)[O-])cc1[N+](=O)[O-]` [2,4-dinitroaniline] yielded a melting point of 177 °C.

As for `O=C(Cl)c1cc([N+](=O)[O-])cc([N+](=O)[O-])c1` [3,5-Dinitrobenzoyl chloride], the melting point came out at 69 °C.

Take `CC=1CCCC(C)(C)C=1/C=CC(C)=CC=CC(/C)=CCO` [Vitamin A]: the melting point turned out to be 63.5 °C.

For the compound `CC12CCC(=O)CC1CCC1C2CCC2(C)C(=O)CCC12O` (stereo not given) [14-hydroxyandrostane-3,17-dione], the melting point amounted to 199 °C.

As to `CC(C)(C)OC(=O)NCCCC[C@H](NC(=O)OCC1c2ccccc2-c2ccccc21)C(=O)O`, the melting point stood at 132 °C.

Compound `CCCCN(CCCC)CCCN` [N,N-di-n-butyl-1,3-propylenediamine] gave a melting point of -70 °C.

`CSc1ccccc1B(O)O` [2-(methylthio)benzeneboronic acid] registered a melting point of 160 °C.

Compound `CCC1(CC)C(=O)NC(=O)NC1=O` [Barbital] yielded a melting point of 190 °C.

Compound `Cc1ccc(B(O)O)cc1` [4-methylbenzeneboronic acid] displayed a melting point of 250 °C.

`COc1cc(C)c2c(c1)CC/C(=C\c1ccccc1)C2=O` gave a melting point of 97 °C.

In the case of `O=C(Nc1cccc(OC(=O)c2ccccc2)c1)c1ccccc1` [3-(benzoylamino)phenyl benzoate], the melting point is 153 °C.

As to `Cc1ccccc1-n1c(C)nc2ccccc2c1=O` [Methaqualone], the melting point was 113 °C.

In turn, `Brc1ccc(I)cc1` [1-bromo-4-iodobenzene] yielded a melting point of 91 °C.

`O=C(N[C@H](CO)C(=O)O)OCc1ccccc1` [N-benzyloxycarbonyl-D-serine] registered a melting point of 118 °C.

Turning to `CCN1CCOCC1` [4-Ethylmorpholine], the melting point is -63 °C.

Compound `O=[N+]([O-])c1cccc(O)c1` [3-Nitrophenol] displayed a melting point of 97 °C.

Regarding `OB(O)c1ccnc(Cl)c1` [2-chloropyridine-4-boronic acid], the melting point was 162 °C.

`O=Cc1cc(B(O)O)ccc1F` [4-fluoro-3-formylbenzeneboronic acid] registered a melting point of 240 °C.

The values are drawn from the Bradley open melting point set (2014).
